Data on one compound can be found in ChEMBL document CHEMBL3886955, “Pyrrolidine derivatives and their use as complement pathway modulators” (2016).

The target of the assay is Complement factor D (Homo sapiens, UniProt P00746). The experiment in a line: In Vitro Assay: Method 1: Recombinant human factor D (expressed in E. coli and purified using standard methods) at 10 nM concentration is incubated with test compound at various concentrations for 1 hour at room temperature in 0.1 M Hepes buffer, pH 7.5, containing 1 mM MgCl2, 1 M NaCl and 0.05% CHAPS. A synthetic substrate Z-Lys-thiobenzyl and 2,4-dinitrobenzenesulfonyl-fluoresceine are added to final concentrations of 200 μM and 25 μM, respectively. The increase in fluorescence is recorded at excitation of 485 nm and emission at 535 nm in a microplate spectrofluorimeter. IC50 values are calculated from percentage of inhibition of complement factor D-activity as a function of test compound concentration.
Complement factor D, sequence (P00746 whole entry): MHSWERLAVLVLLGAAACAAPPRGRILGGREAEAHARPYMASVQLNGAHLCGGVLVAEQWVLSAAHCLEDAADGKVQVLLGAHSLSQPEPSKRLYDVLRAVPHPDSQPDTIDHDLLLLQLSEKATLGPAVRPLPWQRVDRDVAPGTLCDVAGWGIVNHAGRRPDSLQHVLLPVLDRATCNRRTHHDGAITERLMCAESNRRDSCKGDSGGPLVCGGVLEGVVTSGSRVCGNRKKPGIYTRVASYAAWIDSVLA

For `CC(C)=C(F)CNC(=O)[C@@H]1C[C@H]2C[C@H]2N1C(=O)Nc1cn(C(N)=O)c2ccccc12`, the IC50 – broadly, the concentration needed to halve the response being measured – is 24 nM.
